Reference: patent publication US11685738B2, “Fluorinated tetrahydronaphthyridinyl nonanoic acid derivatives and uses thereof” (OcuTerra Therapeutics, Inc., priority 2015, dated 2023)

Experiments:
αvβ6 = αvβ6 (Homo sapiens (Human), UniProt P06756+P18564); test: αVβ6–LAP-TGF β1 integrin binding assay (integrin-coupled beads, flow cytometry); settings: for IC50: ligand LAP TGF-β1; for αvβ8/αvβ6: ratio of αvβ8 IC50 to αvβ6 IC50
Source text: (§1) All αV Integrins are known to bind to proteins with a RGD motif. Two RGD ligands were used in this study: Vitronectin (VN) as a ligand for αVβ3 and αVβ5 (Wayner et al., J. Cell Biol., 113 (4), 919-929, 1991), and LAP TGF-β1 (LAP1) as a ligand for αVβ6 and αVβ8 (Rognoni et al., Nat. Med., 20(4): 350-359, 2014). CWHM12 was used as a positive control for αVβ6 and αVβ8 (Henderson et al., Nat. Med. 19(12), 10.1038/nm.3282 2013), and Cilengitide as a positive control for αVβ3 and αVβ5 (Kumar et al., J. Pharmacol. Exp. Ther., 283, 843-853, 1997).
(§2) The integrin coupled Dyna beads were allowed to interact with respective ligands. The integrin-ligand complex was detected with either Primary/Secondary Antibody conjugated with Fluorescein Isothiocyanate (FITC). For αVβ3 and αVβ5, Vitronectin was used as a ligand and a primary antibody conjugated with FITC (Anti-VN-FITC Ab) was used to detect the interaction. For αVβ6 and αVβ8, LAP-TGF (31 was used as ligand and a primary antibody against LAP1 (Anti-LAP1 Ab) and a secondary antibody conjugated with FITC were used to detect the αVβ6/αVβ8-LAP-TGF (31 complex. Fluorescence was measured by Flow Cytometry analysis.
(§3) 5 mg of Dyna beads were weighed in a low protein binding microfuge (Eppendorf) tube (1.5 mL volume). The beads were re-suspended in 1 mL of Sodium Phosphate Buffer and vortexed at high speed for 30 seconds. The tube was then placed in a tube roller and tilt rotated for 10 min. After tilt rotation, the tube was placed on the Magna Spin and the beads were allowed to settle. The supernatant was discarded and the beads were washed three times. The beads were then re-suspended in 100 μL of Sodium Phosphate Buffer and 20 μL of washed beads were distributed into 5 low protein binding Eppendorf tubes (1 mg of beads in each tube). The beads were used for coupling integrins.
(§4) 20 μL of (1 mg) of beads were mixed with 20 μL of integrins (20 μg) and 20 μL of 3 M Ammonium Sulfate solution (final concentration of ammonium sulfate was 1M) to achieve a Bead: Protein ratio of 5 mg:100 μg. The solution was mixed gently and placed in a tube roller and incubated at 37° C. for 16 hours.
(§5) αVβ6/αVβ8 coupled beads were treated with the ligand LAP TGF-β1 (LAP1) at room temperature for 3 hours. The complex (Integrin+Ligand) was then treated with primary Ab (Anti-LAP1 Ab) overnight at 4° C. The whole complex (Integrin+Ligand+Primary Ab) was treated with Secondary Ab conjugated with FITC and incubated for 2 hours. The complex was analyzed by either plate reader or Flow Cytometer.
(§6) 10 μL of αVβ6/αVβ8 coupled beads were taken for the experiment. The concentration of integrins was 10 nM. 10 μL of LAP1 was taken (10 nM for aVβ6 and 20 nM for aVβ8). Reaction between integrin coupled beads and LAP1 was considered as the full reaction, and reaction without LAP1 or a compound of the disclosure was considered as the blank reaction. The samples were incubated in low protein binding tubes at room temperature for 3 hours. The tubes were briefly spun and placed in a Magna spin. The supernatant was removed. The beads were washed with assay buffer twice to remove excess LAP1 and then re-suspended in […] assay buffer containing 1:200 anti-LAP1 Ab (primary Ab). The tubes were placed in a tube roller and incubated at 4° C. overnight. After a brief spin, the tubes were then placed in a Magna spin and the supernatant was removed. The beads were washed with assay buffer twice to remove excess primary Ab and then re-suspended in 150 μL of assay buffer containing 1:500 secondary Ab conjugated with FITC. The tubes were incubated at room temperature for 2 hours in a tube roller. After a brief spin, the tubes were placed in a Magna spin and the supernatant was removed. The beads were washed with assay buffer twice followed by PBS. The beads were then re-suspended in 300 μL of PBS and analyzed by a Flow Cytometer (BD FACSCalibur, Software—BDcell Quest Pro Version 6). […]

αvβ8 = αvβ8 (Homo sapiens (Human), UniProt P06756+P26012); test: αVβ8–LAP-TGF β1 integrin binding assay (integrin-coupled beads, flow cytometry); settings: ligand LAP TGF-β1
Source text: as §1, §2, §3, §4, §5, §6

αvβ3 = αvβ3 (Homo sapiens (Human), UniProt P05106+P06756); test: αVβ3–vitronectin integrin binding assay (integrin-coupled beads, flow cytometry); settings: ligand vitronectin
Source text: as §1, §2, §3, §4
αVβ3/αVβ5 coupled beads were treated with the ligand at room temperature for 3 hours. The complex (Integrin+Ligand) was then treated with Anti-Vitronectin Ab conjugated with FITC overnight at 4° C. The complex was analyzed by either plate reader or Flow Cytometer.
10 μL of αVβ3/αVβ5 coupled beads were taken for the experiment. The concentration of integrins was 10 nM. 10 μL of vitronectin was taken. The concentration was 10 nM. Reaction between integrin coupled beads and vitronectin was considered as the full reaction, and reaction without vitronectin or a compound of the disclosure was considered as the blank reaction. The samples were incubated in low protein binding tubes at room temperature for 3 hours. The tubes were briefly spun and placed in a Magna spin. The supernatant was then removed. The beads were washed with assay buffer twice to remove excess vitronectin and then re-suspended in 150 μL of assay buffer containing 1:500 Anti-vitronectin Ab conjugated with FITC. The tubes were placed in a tube roller and incubated at 4° C. overnight. […] The beads were then re-suspended in […] PBS and analyzed by a Flow Cytometer (BD FACSCalibur, Software—BD Cell Quest Pro Version 6).
The samples were acquired using a BD FACSCalibur system and analyzed with BD Cell quest pro Version 6. […] Percentage of binding was calculated with respect to full reaction. […]

αvβ3, sequence (P06756 31-992): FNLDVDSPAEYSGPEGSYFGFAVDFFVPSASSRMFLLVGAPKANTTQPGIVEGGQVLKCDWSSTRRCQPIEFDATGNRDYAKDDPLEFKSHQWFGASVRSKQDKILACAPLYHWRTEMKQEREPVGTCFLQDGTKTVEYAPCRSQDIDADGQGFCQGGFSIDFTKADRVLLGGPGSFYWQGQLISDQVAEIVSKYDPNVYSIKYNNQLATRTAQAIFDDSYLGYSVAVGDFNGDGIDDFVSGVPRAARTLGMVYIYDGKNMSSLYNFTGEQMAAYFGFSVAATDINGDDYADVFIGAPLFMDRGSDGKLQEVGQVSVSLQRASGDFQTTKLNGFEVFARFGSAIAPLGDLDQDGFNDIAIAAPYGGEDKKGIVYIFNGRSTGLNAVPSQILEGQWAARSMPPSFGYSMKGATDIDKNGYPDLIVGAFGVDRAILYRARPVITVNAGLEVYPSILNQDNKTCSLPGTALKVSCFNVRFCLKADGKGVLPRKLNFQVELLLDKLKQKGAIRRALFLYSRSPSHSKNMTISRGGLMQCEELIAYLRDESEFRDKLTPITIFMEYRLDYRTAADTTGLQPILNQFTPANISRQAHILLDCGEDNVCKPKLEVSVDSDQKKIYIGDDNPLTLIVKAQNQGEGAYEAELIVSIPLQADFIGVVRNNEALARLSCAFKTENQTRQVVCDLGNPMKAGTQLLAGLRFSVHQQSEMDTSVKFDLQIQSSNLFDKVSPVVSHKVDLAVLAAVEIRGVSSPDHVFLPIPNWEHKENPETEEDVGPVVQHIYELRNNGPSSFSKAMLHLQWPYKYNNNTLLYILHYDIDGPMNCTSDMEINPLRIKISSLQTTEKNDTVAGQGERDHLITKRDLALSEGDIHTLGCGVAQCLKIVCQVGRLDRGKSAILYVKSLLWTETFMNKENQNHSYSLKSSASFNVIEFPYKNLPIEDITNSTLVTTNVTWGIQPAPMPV
αvβ3, sequence (P05106 27-718): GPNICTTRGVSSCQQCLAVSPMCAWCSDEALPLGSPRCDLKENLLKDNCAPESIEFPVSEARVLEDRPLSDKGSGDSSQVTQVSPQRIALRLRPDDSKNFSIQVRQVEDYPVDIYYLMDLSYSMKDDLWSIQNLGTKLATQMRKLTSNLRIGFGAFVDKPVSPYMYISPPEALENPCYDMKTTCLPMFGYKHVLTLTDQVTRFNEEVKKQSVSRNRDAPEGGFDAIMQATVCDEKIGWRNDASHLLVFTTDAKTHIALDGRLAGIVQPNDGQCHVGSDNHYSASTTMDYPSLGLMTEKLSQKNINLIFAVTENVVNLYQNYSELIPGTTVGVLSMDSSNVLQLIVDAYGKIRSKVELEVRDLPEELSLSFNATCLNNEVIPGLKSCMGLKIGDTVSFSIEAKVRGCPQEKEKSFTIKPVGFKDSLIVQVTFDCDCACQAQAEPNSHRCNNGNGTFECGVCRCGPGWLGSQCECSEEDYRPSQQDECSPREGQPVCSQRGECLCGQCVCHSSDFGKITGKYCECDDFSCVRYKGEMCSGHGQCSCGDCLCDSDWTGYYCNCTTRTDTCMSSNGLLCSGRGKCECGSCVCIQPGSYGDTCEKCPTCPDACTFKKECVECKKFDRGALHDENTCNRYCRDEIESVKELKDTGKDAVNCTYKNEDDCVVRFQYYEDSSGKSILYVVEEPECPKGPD
αvβ8, sequence (P06756 31-992): as the sequence (P06756 31-992) above
αvβ8, sequence (P26012 43-684): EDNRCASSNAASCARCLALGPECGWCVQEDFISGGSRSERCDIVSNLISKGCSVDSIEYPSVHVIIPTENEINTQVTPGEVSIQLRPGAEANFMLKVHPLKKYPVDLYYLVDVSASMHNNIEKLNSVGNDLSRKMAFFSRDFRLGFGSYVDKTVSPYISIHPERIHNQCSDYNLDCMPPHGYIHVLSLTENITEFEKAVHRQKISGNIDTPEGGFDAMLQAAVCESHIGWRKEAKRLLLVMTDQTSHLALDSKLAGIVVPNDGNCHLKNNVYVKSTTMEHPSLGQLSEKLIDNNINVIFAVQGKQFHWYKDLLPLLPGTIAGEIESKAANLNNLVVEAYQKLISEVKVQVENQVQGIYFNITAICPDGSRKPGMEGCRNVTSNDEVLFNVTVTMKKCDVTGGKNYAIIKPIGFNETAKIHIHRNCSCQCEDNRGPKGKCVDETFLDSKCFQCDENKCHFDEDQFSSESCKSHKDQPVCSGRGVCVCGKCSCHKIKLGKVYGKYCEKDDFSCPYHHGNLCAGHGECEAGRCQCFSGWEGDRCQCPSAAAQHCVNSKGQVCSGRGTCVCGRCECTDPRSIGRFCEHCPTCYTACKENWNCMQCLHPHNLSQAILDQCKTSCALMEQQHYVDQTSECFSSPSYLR
αvβ6, sequence (P06756 31-992): as the sequence (P06756 31-992) above
αvβ6, sequence (P18564 22-707): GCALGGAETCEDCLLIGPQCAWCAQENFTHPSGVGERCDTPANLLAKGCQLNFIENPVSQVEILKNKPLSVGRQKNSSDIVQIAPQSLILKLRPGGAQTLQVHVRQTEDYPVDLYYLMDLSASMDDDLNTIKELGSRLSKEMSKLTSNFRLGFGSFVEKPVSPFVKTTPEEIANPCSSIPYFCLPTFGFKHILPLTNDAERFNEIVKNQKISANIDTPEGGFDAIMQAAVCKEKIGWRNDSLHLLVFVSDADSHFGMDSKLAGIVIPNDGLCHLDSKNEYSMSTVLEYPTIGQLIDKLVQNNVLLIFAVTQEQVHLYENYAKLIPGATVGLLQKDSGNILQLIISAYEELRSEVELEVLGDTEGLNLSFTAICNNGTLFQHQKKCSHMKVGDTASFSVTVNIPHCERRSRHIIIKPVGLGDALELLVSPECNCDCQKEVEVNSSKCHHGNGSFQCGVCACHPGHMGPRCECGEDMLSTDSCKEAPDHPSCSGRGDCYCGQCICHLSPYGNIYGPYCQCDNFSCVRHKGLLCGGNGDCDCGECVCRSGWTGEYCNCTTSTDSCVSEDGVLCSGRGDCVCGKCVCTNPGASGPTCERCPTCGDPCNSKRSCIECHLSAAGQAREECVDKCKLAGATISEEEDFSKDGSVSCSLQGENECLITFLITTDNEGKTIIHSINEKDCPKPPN

Row | SMILES | IC50 (αvβ6) | αvβ8/αvβ6 (αvβ6) | IC50 (αvβ8) | IC50 (αvβ3)
1 | O=C(O)CC(CCCCCCc1ccc2c(n1)NCCC2)c1ccc(OC(F)F)nc1 (stereo not shown) [Compound A3, 3-(6-(difluoromethoxy)pyridin-3-yl)-9-(5,6,7,8-tetrahydro-1,8-naphthyridin-2-yl)nonanoic acid] | 18.2 nM | 4.37 | 79.3 nM | 0.57 nM
2 | O=C(O)CC(CCCCCCc1ccc2c(n1)NCCC2)c1cnc2ccc(F)cc2c1 (stereo not shown) [Compound A4, 3-(6-fluoroquinolin-3-yl)-9-(5,6,7,8-tetrahydro-1,8-naphthyridin-2-yl)nonanoic acid] | 5.69 nM | 3.75 | 21.4 nM | 1.4 nM
3 | O=C(O)CC(CCCCCCc1ccc2c(n1)NCCC2)c1cnc2cc(F)ccc2c1 (stereo not shown) [Compound A5, 3-(7-fluoroquinolin-3-yl)-9-(5,6,7,8-tetrahydro-1,8-naphthyridin-2-yl)nonanoic acid] | 9.97 nM | 6.41 | 63.9 nM | 65.7 nM
4 | O=C(O)CC(CCCCCCc1ccc2c(n1)NCCC2)c1ccc(Cl)c(C(F)(F)F)c1 (stereo not shown) [Compound A23, 3-(4-chloro-3-(trifluoromethyl)phenyl)-9-(5,6,7,8-tetrahydro-1,8-naphthyridin-2-yl)nonanoic acid] | 14.8 nM | 10.18 | 151 nM | 4.3 nM
